Data on four compounds can be found in US20030055092A1, “Remedies for ischemic stroke” (priority 1998, published 2003).

As usually defined, the IC50 is the concentration that inhibits the measured activity by half.

The subject of test [1] is gerbils exposed to 5 min of cerebral ischemia. The following applies: cited from earlier work.
Another test has as its target T1, mGluR1α (Rattus norvegicus, UniProt P23385).
T1 construct: expressed in transfected cells; host or cells: NIH3T3
Nature of the test: glutamate-induced phosphatidylinositol (PI) hydrolysis in mGluR1α-expressing cells. Format: cell-based. The note with it: 100 μM glutamate, read-out: IC50 for inhibition of glutamate-induced PI formation against mGluR1α. The method, then:
NIH3T3 cells expressed mGluR1 α and mGluR5a individually were cultured in DMEM medium containing 10% dialyzed fetal bovine serum and 100 units/ml, 0.1 mg/ml streptomycin sulfate. CHO cells which expressed mGluR2, R3, R4, R6 and R7 individually were cultured in DMEM medium containing 10% dialyzed fetal bovine serum, 100 units/ml, 0.1 mg/ml streptomycin sulfate and 2 mM glutamine. Hydrolysis of phosphatidylinositol was measured as previously described (Nature, 383, 89-92, 1996) using the mGluR1 α-expressing cells incorporated ^3H-inositol.

In the next test the target is T2, mGluR2 (Rattus norvegicus, UniProt P31421).
T2 construct: expressed in transfected cells; host or cells: CHO
Nature of the test: forskolin-induced cAMP formation in mGluR2-expressing CHO cells. Format: cell-based. The following applies: up to 100 μM. The method, then:
(§1) NIH3T3 cells expressed mGluR1 α and mGluR5a individually were cultured in DMEM medium containing 10% dialyzed fetal bovine serum and 100 units/ml, 0.1 mg/ml streptomycin sulfate. CHO cells which expressed mGluR2, R3, R4, R6 and R7 individually were cultured in DMEM medium containing 10% dialyzed fetal bovine serum, 100 units/ml, 0.1 mg/ml streptomycin sulfate and 2 mM glutamine. Using the cells expressing mGluR2, R3, R4, R6 and R7 cAMP formation induced by forskolin in the presence of IBMX was measured using a cAMP measuring kit as previously described (Neuron, 8, 169-179, 1992).

Another test has as its target T3, mGluR3 (Rattus norvegicus, UniProt P31422).
T3 construct: expressed in transfected cells; host or cells: CHO
Put plainly: forskolin-induced cAMP formation in mGluR3-expressing CHO cells. The class given is cell-based. The following applies: up to 100 μM. The method, then: as §1
For orientation: cAMP levels reflect the balance of adenylyl cyclase and phosphodiesterase activity.

Another test deals with T4, mGluR4 (Rattus norvegicus, UniProt P31423).
T4 construct: expressed in transfected cells; host or cells: CHO
Nature of the test: forskolin-induced cAMP formation in mGluR4-expressing CHO cells. The class given is cell-based. The note with it: up to 100 μM. The protocol: as §1

The target in another test is T5, mGluR6 (Rattus norvegicus, UniProt P35349).
T5 construct: expressed in transfected cells; host or cells: CHO
Nature of the test: forskolin-induced cAMP formation in mGluR6-expressing CHO cells. Format: cell-based. The note with it: up to 100 μM. The protocol: as §1

Another test deals with T6, mGluR7 (Rattus norvegicus, UniProt P35400).
T6 construct: expressed in transfected cells; host or cells: CHO
Put plainly: forskolin-induced cAMP formation in mGluR7-expressing CHO cells. The class given is cell-based. The following applies: up to 100 μM. The protocol: as §1

The target in a further test is T7, mGluR5 (Rattus norvegicus, UniProt P31424).
T7 construct: expressed in transfected cells; host or cells: NIH3T3
Put plainly: agonist/antagonist activity in mGluR5a-expressing NIH3T3 cells. The following applies: up to 10 μM. The class given is cell-based. The method, then: NIH3T3 cells expressed mGluR1 α and mGluR5a individually were cultured in DMEM medium containing 10% dialyzed fetal bovine serum and 100 units/ml, 0.1 mg/ml streptomycin sulfate. CHO cells which expressed mGluR2, R3, R4, R6 and R7 individually were cultured in DMEM medium containing 10% dialyzed fetal bovine serum, 100 units/ml, 0.1 mg/ml streptomycin sulfate and 2 mM glutamine.

The test system of test [2] is Fischer-344 rat, permanent left MCA occlusion. Nature of the test: permanent MCA occlusion model, cerebral infarct volume (TTC staining). The following applies: 6 mg/kg/h i.v. continuously for 24 hours from 5 minutes after occlusion. Format: in vivo. The protocol: Compound A was dissolved in physiological saline and adjusted to 6 mg/3 ml. In accordance with the known method (J. Pharmacol. Exp. Thr., 276, 84-92, 1996), left MCA of a Fischer-344 rat was subjected to permanent occlusion and, 5 minutes thereafter, the compound A was intravenously administered continuously for 24 hours at a rate of 6 mg/a dose volume of 3 ml/kg/h under no anesthesia and no restriction. After completion of the administration, the animal was decapitated to excise the brain which was subsequently stained with 2,3,5-triphenyltetrazolium hydrochloride (TTC) to measure infarct volume.

T1 sequence (P23385 19-1199): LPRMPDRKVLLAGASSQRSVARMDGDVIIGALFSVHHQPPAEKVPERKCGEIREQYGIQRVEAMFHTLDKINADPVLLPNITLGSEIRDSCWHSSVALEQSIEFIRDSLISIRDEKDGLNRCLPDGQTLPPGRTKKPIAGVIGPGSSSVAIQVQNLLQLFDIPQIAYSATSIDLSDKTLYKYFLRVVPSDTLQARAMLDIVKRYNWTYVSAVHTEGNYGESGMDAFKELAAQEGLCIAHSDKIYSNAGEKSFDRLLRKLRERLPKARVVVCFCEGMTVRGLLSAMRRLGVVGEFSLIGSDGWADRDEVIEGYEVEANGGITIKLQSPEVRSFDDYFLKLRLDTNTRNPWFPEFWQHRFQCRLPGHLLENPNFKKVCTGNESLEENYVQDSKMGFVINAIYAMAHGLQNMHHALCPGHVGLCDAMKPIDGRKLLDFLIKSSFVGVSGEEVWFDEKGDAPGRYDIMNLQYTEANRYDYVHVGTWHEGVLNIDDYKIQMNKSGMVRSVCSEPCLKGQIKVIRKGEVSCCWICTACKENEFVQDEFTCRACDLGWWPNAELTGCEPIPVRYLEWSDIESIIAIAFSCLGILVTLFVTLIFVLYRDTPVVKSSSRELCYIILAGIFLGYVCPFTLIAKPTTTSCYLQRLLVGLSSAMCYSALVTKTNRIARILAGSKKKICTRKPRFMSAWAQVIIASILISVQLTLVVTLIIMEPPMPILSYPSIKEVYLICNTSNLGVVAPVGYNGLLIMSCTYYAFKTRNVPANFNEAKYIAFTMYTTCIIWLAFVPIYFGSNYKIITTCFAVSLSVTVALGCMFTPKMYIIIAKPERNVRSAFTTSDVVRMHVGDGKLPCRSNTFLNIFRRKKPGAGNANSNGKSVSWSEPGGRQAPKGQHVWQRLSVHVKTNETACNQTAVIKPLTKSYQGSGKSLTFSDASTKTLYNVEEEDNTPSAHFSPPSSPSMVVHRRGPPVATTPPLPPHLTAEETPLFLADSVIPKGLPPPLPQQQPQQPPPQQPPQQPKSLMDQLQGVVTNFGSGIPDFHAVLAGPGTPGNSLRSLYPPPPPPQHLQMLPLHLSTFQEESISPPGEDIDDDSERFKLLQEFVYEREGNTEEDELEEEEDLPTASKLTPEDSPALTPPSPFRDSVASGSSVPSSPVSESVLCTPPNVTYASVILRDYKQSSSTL
T4 sequence (P31423 33-912): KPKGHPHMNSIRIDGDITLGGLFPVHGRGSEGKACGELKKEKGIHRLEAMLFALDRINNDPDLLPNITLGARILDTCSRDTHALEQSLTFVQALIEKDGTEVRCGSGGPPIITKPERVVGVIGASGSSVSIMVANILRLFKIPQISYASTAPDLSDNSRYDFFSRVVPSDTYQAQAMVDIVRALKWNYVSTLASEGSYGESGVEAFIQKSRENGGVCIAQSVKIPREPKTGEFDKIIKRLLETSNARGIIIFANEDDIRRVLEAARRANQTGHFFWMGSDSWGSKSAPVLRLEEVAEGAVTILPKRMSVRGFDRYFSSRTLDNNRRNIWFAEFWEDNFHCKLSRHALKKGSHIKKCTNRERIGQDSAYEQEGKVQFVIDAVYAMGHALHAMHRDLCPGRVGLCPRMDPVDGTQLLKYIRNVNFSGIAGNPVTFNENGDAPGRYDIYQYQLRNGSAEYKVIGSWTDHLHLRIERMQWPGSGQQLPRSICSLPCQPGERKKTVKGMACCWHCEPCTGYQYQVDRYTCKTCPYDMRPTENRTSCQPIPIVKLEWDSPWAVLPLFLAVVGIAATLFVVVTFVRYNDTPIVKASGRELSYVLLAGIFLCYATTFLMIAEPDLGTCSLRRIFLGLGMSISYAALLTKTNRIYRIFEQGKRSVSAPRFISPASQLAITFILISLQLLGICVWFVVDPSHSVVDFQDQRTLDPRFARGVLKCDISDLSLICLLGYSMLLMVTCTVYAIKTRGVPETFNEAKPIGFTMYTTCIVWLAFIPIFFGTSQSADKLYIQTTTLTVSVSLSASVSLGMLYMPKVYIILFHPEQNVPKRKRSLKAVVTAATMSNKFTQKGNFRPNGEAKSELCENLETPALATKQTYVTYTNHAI
T2 sequence (P31421 19-872): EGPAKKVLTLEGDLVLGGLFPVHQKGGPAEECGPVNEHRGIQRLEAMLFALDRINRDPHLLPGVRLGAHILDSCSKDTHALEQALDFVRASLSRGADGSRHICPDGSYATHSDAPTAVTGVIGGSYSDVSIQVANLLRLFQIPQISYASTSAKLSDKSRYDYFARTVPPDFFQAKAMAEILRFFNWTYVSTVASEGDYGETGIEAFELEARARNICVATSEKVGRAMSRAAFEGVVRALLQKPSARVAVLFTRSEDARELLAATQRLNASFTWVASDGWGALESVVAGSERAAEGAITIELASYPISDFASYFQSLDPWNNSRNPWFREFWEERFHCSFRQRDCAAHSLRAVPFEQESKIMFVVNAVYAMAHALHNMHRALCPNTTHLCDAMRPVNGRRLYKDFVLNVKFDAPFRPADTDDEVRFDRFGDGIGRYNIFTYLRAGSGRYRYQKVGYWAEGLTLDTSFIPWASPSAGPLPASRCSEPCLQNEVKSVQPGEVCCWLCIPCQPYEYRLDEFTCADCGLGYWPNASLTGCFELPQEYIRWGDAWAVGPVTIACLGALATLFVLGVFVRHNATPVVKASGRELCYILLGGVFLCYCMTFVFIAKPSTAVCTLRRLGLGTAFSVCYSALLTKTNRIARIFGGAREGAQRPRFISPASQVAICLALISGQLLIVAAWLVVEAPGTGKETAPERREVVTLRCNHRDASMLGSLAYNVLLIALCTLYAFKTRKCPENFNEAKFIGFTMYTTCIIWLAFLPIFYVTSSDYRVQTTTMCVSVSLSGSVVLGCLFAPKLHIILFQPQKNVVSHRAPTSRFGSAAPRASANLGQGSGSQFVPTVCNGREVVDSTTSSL
T5 sequence (P35349 24-871): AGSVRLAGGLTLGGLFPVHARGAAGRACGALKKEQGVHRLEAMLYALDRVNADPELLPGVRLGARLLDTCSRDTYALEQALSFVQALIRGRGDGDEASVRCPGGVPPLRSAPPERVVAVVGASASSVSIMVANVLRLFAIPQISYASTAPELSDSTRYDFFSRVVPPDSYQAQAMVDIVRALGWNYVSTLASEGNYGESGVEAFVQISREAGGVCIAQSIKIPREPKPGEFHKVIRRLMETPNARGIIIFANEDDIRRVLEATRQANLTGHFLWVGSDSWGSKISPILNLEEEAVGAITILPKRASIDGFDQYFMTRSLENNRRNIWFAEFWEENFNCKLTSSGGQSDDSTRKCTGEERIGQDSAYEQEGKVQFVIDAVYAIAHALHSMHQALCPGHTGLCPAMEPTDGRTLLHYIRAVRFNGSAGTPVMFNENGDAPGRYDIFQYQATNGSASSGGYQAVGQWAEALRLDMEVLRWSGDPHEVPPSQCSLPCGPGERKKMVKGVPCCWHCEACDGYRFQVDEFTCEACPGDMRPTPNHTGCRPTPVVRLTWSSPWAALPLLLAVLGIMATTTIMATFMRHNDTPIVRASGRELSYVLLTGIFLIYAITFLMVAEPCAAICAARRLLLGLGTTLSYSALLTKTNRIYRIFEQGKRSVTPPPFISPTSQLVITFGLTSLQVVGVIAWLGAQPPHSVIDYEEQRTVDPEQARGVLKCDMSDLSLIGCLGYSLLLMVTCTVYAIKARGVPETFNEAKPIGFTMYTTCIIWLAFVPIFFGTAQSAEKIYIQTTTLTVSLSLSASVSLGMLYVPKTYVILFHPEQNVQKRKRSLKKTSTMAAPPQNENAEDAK
T3 sequence (P31422 23-879): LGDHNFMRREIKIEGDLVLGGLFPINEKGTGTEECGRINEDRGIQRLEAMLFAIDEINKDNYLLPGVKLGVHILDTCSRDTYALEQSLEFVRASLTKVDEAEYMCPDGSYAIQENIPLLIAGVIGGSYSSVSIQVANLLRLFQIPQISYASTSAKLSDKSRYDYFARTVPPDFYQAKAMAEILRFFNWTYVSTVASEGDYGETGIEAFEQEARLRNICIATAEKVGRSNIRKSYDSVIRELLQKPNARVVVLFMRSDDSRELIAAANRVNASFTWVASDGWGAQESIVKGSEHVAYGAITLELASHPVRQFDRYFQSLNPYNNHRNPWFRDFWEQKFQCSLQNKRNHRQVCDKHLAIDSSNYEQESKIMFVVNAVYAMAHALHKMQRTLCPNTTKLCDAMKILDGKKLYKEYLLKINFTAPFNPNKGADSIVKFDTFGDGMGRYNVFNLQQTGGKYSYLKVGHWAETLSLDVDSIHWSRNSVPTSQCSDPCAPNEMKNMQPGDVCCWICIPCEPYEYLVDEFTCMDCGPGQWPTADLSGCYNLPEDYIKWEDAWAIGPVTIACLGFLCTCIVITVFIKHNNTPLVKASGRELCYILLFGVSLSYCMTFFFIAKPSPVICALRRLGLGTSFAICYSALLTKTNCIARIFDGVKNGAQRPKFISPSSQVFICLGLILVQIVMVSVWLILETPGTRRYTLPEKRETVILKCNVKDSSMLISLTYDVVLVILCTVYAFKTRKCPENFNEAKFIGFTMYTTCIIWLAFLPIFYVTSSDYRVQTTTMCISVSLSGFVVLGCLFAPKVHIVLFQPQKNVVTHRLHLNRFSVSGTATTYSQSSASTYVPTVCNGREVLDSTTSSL

On to `N[C@H](C(=O)O)c1ccc(C(=O)O)c(O)c1` [4 C3 HPG, (S)-4-carboxy-3 hydroxyphenylglycine], for which the “neuroprotective effectiveness in the same gerbil model” value in test [1] is “is effective”.

Consider `N[C@H](C(=O)O)c1ccc(C(=O)O)cc1` [4 CPG, (S)-4-carboxyphenylglycine], for which, in test [1], the “neuroprotective effectiveness in the same gerbil model” value is listed as “is not effective”.

Take `NC1(C(=O)O)CCc2cc(C(=O)O)ccc21` (stereo not shown) [AIDA]: in [1] (intraventricular administration), the “loss of neuronal cells in CA1 area” value is “reduced the loss of the neuronal cells”.

For the compound `Cc1c(C(=O)N(C)C2CCCCC2)sc2nc3ccc(N)cc3n12.Cl.Cl` [compound A, 6-amino-N-cyclohexyl-N,3-dimethylthiazolo[3,2-a]benzoimidazole-2-carboxamide dihydrochloride], at mGluR1α, the IC50 worked out at 24 nM. Also, the “agonist and antagonist activities against mGluR2” value at mGluR2 is “no agonist and antagonist activities”. At mGluR3, the “agonist and antagonist activities against mGluR3” value is “no agonist and antagonist activities”. Further, the “agonist and antagonist activities against mGluR4” value on mGluR4 was “no agonist and antagonist activities”. For the same compound, the “agonist and antagonist activities against mGluR6” value on mGluR6 is “no agonist and antagonist activities”. At mGluR7, the “agonist and antagonist activities against mGluR7” value is “no agonist and antagonist activities”. For the same compound, the “agonist and antagonist activities against mGluR5” value at mGluR5 was “no agonist and antagonist activities”. Moreover, in [2], the “cerebral infarct volume suppression ratio in cerebral cortex” value stood at 36%, the “cerebral infarct volume suppression ratio in cerebral hemisphere” value was 29% and the “effect on cerebral infarct volume versus controls” value is on record as “reduced the cerebral infarct volume significantly”.
